Test results from US9745261B2, “Inhibitors of the MITF molecular pathway” (THE GENERAL HOSPITAL CORPORATION, priority 2013, dated 2017).

Tests used:
SK-MEL-5 cells = test: SK-MEL-5 cell cytotoxicity assay (CellTiter-Glo); type: cell-based, human; settings: FIG. 13
Description: (§1) SK-MEL-5 cells were treated with compounds for 24 hours, and then cell viability was measured using the CellTiter-Glo Assay (Promega), a luciferase-based reagent that measures cellular ATP levels. The compounds were tested at different concentrations to determine IC50 values. Compounds that were active in the primary assay and toxic below 30 μM at 24 hours were considered for probe development. Data were normalized against DMSO in Genedata Screener's Assay Analyzer.
(§2) SK-MEL-5 cells were maintained in DMEM (10% FBS, 1% Pen-Strep-Glutamine). Cells were fluid changed every 3 days and/or split upon reaching 100% confluency. For secondary assays, cells were thawed at 4 million cells per Falcon T175 flask. After 3 days, the cells were fluid changed, after 3 more days cells were passed to a Corning Triple flask (10-15 million cells) and plated after 3 days in the triple flask.
Day 1 • 1. Plate SK-MEL-5 cells at 3,000 per well in 30 uL media (phenol red free DMEM/10% Fetal Bovine Serum/Penicillin/Streptomycin/L-Glutamine) • 2. Use Corning white 384-well, square, opaque-bottomed plates (Corning Catalog No. 8867BC)
Day 2 • 3. Pin 100 nL compound/DMSO solution (Cybi Well) into assay plates. (For HTS, required sentinel pinning with the positive control, parthenolide (6 mM)) • 4. […]
(§3) Day 3 • 5. […] Read on the Perkin-Elmer EnVision plate reader with luminescence (LUM) settings for 0.1 sec per well. […]

CDK2 = test: qPCR assay for CDK2 expression in SK-MEL-5 cells; type: cell-based, human; settings: qPCR
Description: SK-MEL-5 cells were treated with compounds for 24 hours. Next, cells were lysed with DNase I (Ambion, from Cell to CT Lysis Mix). Lysed cells were delivered to a RT-PCR plate (Ambion, Cells to CT RT Mix) and the plates were then processed for reverse transcription to create cDNA. qPCR was performed by transferring cDNA from the RT-PCR plate to a qPCR plate containing PCR master mix (Roche, Probes Master), FAM Taqman probe/primer set for the target gene (human MITF, Applied Biosystem, 4331182 Hs01117294_m1), VIC Taqman probe/primer set for a house keeping gene (human GAPDH, Applied Biosystems C10228) and water. qPCR plates were cycled using a real-time PCR instrument (Roche, Light Cycler). Using the instrument software, a cycle call was generated when each well enters log phase amplification (Ct). The delta Ct value was determined by subtracting the Ct value of the control gene (GAPDH) from the Ct value of the target gene (MITF) in each well. The delta delta Ct value of each compound treatment was determined by averaging the delta Ct values of the mock well on each plate and subtracting that average from the delta Ct value of each compound well. […]
• 10. […] The RT assay plates are incubated at 37° C. for 1 hour and the reverse transcriptase is inactivated by incubating the plates for 1 minute at 95° C. • 13. cDNA is stored at −80° C. until ready for qPCR analysis […]

A375 cells = test: A-375 cell cytotoxicity assay (CellTiter-Glo); type: cell-based, human; settings: FIG. 13
Description: as §1, with “A375 cells were” for “SK-MEL-5 cells were”, “assay and were not toxic below” for “assay and toxic below”
as §2, with “A-375” for “SK-MEL-5”, “90%” for “100%”, “2” for “4”, “days,” for “days, the cells were fluid changed, after 3 more days”, “(6-8” for “(10-15”
Day 1 • 1. Plate A-375 cells at 3,000 per well in 30 uL media (phenol red free DMEM/10% Fetal Bovine Serum/Penicillin/Streptomycin/L-Glutamine) • 2. Use Corning white 384-well, square, opaque-bottomed plates (Corning Catalog No. 8867BC)
Day 2 • 3. Pin 100 nL compound/DMSO solution (Cybi Well) into assay plates. (For HTS, required sentinel pinning with the positive control, parthenolide (6 mM)) • 4. Incubate 24 hours at 37° C. in Liconic incubator.
as §3

MALME-3M cells = test: MALME-3M cell cytotoxicity assay (CellTiter-Glo); type: cell-based, human; settings: FIG. 13
Description: as §1, with “MALME-3M” for “SK-MEL-5”
as §2, with “MALME-3M” for “SK-MEL-5”, “IMDM (20%” for “DMEM (10%”, “6” for “4”, “days,” for “days, the”, “(15-18” for “(10-15”
Day 1 • 1. Plate MALME-3M cells at 3,000 per well in 30 uL media (phenol red free IMDM/10% Fetal Bovine Serum/Penicillin/Streptomycin/L-Glutamine) • 2. Use Corning white 384-well, square, opaque-bottomed plates (Corning Catalog No. 8867BC)
Day 2 • 3. Pin 100 nL compound/DMSO solution (Cybi Well) into assay plates, including the positive control. • 4. Incubate 24 hours at 37° C. in Liconic incubator.
as §3

[1] = tested on: human melanoma cell lines; test: Cell viability of human melanoma cell lines (CellTiter-Glo, 48-72 hours); type: cell-based
Description: (§4) Experiments described in this example were performed using methods as described in Haq et al. (2013). Oncogenic BRAF regulates oxidative metabolism via PGC1α and MITF. Cancer Cell. 2013 Mar. 18; 23(3):302-15.
(§5) Indicated cell line was treated with varying concentrations of ML329 for 48-72 hours. Viability was measured using the CellTiter-Glo reagent (Promega).

MITF protein = MITF protein by Western immunoblotting in SKMEL-5 cells; type: cell-based, human
Description: as §4
MITF protein was detected using Western immunoblotting. In parallel, SK-MEL-5 cells treated with ML329 (above) were lysed and MITF mRNA was quantified by qPCR (FIG. 12b).

[2] = tested on: MITF and MITF target genes; test: qPCR of MITF and MITF target genes in human melanoma cell lines and primary melanocytes; type: cell-based; settings: 24 h, multiple cell lines
Description: as §4
Effect of ML329 (24 h at indicated concentration) on MITF mRNA and target gene mRNA expression in melanoma cell lines. mRNA was quantified by qPCR.

non-melanoma cells = test: Non-melanoma cell viability (CellTiter-Glo, 48-72 hours); type: cell-based
Description: as §4, §5

Structure (SMILES) | Cell viability, SK-MEL-5 (MITF-dependent), result in words (SK-MEL-5 cells) | CDK2 expression, result in words (CDK2) | Cell viability, A-375 (MITF-independent), result in words (A375 cells) | Cell viability, MALME-3M (MITF-dependent), result in words (MALME-3M cells) | Sensitivity of melanoma cell lines (cell viability) ([1]; A375, SKMEL2, IPC298 and SK30) | Cytotoxicity in a large number of melanoma cells ([1]; CellTiter-Glo, incl. vemurafenib-resistant lines) | Sensitivity of melanoma cell lines (cell viability) ([1]; SKMEL5, IST MEL, MALME-3M and 501 MEL) | Sensitivity of melanoma cell lines (cell viability) ([1]; UACC257, C32, COLO800 and MZ2MEL) | Effect on MITF protein (MITF protein) | Effect on MITF mRNA and target gene mRNA expression [2] | Cytotoxicity in non-melanoma cells or melanoma cells lacking MITF (non-melanoma cells)
Cc1nc2ccccc2n1/N=C/c1ccc([N+](=O)[O-])s1 | specific activity against the MITF-dependent cells | reduced the expression | no impairment of viability | specific activity against the MITF-dependent cells | – | – | – | – | – | – | –
NS(=O)(=O)c1ccc(NC2=CC(=O)c3ccccc3C2=O)cc1 [ML329, 4-((1,4-dioxo-1,4-dihydronaphthalen-2-yl)amino)benzenesulfonamide] | – | – | – | – | less sensitive | variably cytotoxic | very sensitive | sensitive | suppresses MITF protein | suppresses MITF and its transcriptional activity | not cytotoxic
